Results: patent publication US9211310B2, “Use of a Chinese medicine composition in preparing medicaments for treating secondary prevention of myocardial infarction” (TASLY PHARMACEUTICAL GROUP CO., LTD, priority 2010, dated 2015)

Test system: patients after acute myocardial infarction
Test: Life quality, Seattle Angina Questionnaire (SAQ), same clinical trial
Format: in vivo, human
Text: 3508 patients who were in accordance with the diagnostic standards of AMI for 28 days to 2 years and differentiated as Qi deficiency and blood stagnation syndrome by TCM were studied. 0.5 g Chinese medicine composition prepared by the method of EXAMPLE 1 (Coded as QSYQ) was administrated half an hour after meal, 3 times per day.
There were 19 questions in the Seattle angina questionnaire (SAQ), including 5 parts: physical limitation (PL), anginal stability (AS), anginal frequency (AF), treatment satisfaction (TS) and disease perception (DP). After being given necessary explanation by doctors, the questions were answered independently by patients.
They included the overall survival time, angina pectoris score, TCM symptom score and life quality score, where angina pectoris score, TCM symptom score and life quality score were evaluated at randomization, in 1st, 3rd, 6th, 9th, 12th month after treatment and 18th month after follow-up.
All evaluation results of SAQ were described during the period of observation, and Wilcoxon rank sum test was used for inter-group comparison.
The evaluation results in the SAQ were depicted in different observations, and inter-group comparison was tested by Wilcoxon Rank-sum test.

Compound: CC(=O)Oc1ccccc1C(=O)O [Control group, aspirine]
- SAQ Question 1-4: Slightly limited, percent of patients (9 months after treatment, PP): (32.89%)
- SAQ Question 1-5: Mildly limited, number of patients (9 months after treatment, PP): 226
- SAQ Question 1-5: Mildly limited, percent of patients (9 months after treatment, PP): (15.75%)
- SAQ Question 1-5: Moderately limited, number of patients (9 months after treatment, PP): 77
- SAQ Question 1-5: Moderately limited, percent of patients (9 months after treatment, PP): (5.37%)
- SAQ Question 1-5: Not limited, number of patients (9 months after treatment, PP): 705
- SAQ Question 1-5: Not limited, percent of patients (9 months after treatment, PP): (49.13%)
- SAQ Question 1-5: Other reasons, number of patients (9 months after treatment, PP): 10
- SAQ Question 1-5: Other reasons, percent of patients (9 months after treatment, PP): (0.70%)
- SAQ Question 1-5: Severely limited, number of patients (9 months after treatment, PP): 9
- SAQ Question 1-5: Severely limited, percent of patients (9 months after treatment, PP): (0.63%)
- SAQ Question 1-5: Slightly limited, number of patients (9 months after treatment, PP): 408
- SAQ Question 1-5: Slightly limited, percent of patients (9 months after treatment, PP): (28.43%)
- SAQ Question 1-9: Mildly limited, % of cases (9 months after treatment, PP): (19.70%)
- SAQ Question 1-9: Mildly limited, cases (9 months after treatment, PP): 275
- SAQ Question 1-9: Moderately limited, % of cases (9 months after treatment, PP): (20.92%)
- SAQ Question 1-9: Moderately limited, cases (9 months after treatment, PP): 292
- SAQ Question 1-9: Not limited, % of cases (9 months after treatment, PP): (4.23%)
- SAQ Question 1-9: Not limited, cases (9 months after treatment, PP): 59
- SAQ Question 1-9: Other reasons, % of cases (9 months after treatment, PP): (5.80%)
- SAQ Question 1-9: Other reasons, cases (9 months after treatment, PP): 81
- SAQ Question 1-9: Severely limited, % of cases (9 months after treatment, PP): (32.38%)
- SAQ Question 1-9: Severely limited, cases (9 months after treatment, PP): 452
- SAQ Question 1-9: Slightly limited, % of cases (9 months after treatment, PP): (16.98%)
- SAQ Question 1-9: Slightly limited, cases (9 months after treatment, PP): 237
- SAQ 2nd question: 6, % of cases (12 months after treatment, FAS): (0.00%)
- SAQ 2nd question: 6, cases (12 months after treatment, FAS): 0
- SAQ 2nd question: Clearly increased, % of cases (12 months after treatment, FAS): (1.32%)
- SAQ 2nd question: Clearly increased, cases (12 months after treatment, FAS): 23
- SAQ 2nd question: Clearly reduced, % of cases (12 months after treatment, FAS): (27.55%)
- SAQ 2nd question: Clearly reduced, cases (12 months after treatment, FAS): 480
- SAQ 2nd question: Same, % of cases (12 months after treatment, FAS): (37.83%)
- SAQ 2nd question: Same, cases (12 months after treatment, FAS): 659
- SAQ 2nd question: Slightly increased, % of cases (12 months after treatment, FAS): (3.16%)
- SAQ 2nd question: Slightly increased, cases (12 months after treatment, FAS): 55
- SAQ 2nd question: Slightly reduced, % of cases (12 months after treatment, FAS): (30.14%)
- SAQ 2nd question: Slightly reduced, cases (12 months after treatment, FAS): 525
- SAQ 3rd question: 1-2 times per week, % of cases (12 months after treatment, FAS): (30.14%)
- SAQ 3rd question: 1-2 times per week, cases (12 months after treatment, FAS): 525
- SAQ 3rd question: 1-3 times per day, % of cases (12 months after treatment, FAS): (3.16%)
- SAQ 3rd question: 1-3 times per day, cases (12 months after treatment, FAS): 55
- SAQ 3rd question: <1 time per week, % of cases (12 months after treatment, FAS): (27.55%)
- SAQ 3rd question: <1 time per week, cases (12 months after treatment, FAS): 480
- SAQ 3rd question: No onset, % of cases (12 months after treatment, FAS): (0.00%)
- SAQ 3rd question: No onset, cases (12 months after treatment, FAS): 0
- SAQ 3rd question: ≧3 times per week, % of cases (12 months after treatment, FAS): (37.83%)
- SAQ 3rd question: ≧3 times per week, cases (12 months after treatment, FAS): 659
- SAQ 3rd question: ≧4 times per day, % of cases (12 months after treatment, FAS): (1.32%)
- SAQ 3rd question: ≧4 times per day, cases (12 months after treatment, FAS): 23
- SAQ Question 1-3: Mildly limited, number of patients (12 months after treatment, FAS): 54
- SAQ Question 1-3: Mildly limited, percent of patients (12 months after treatment, FAS): (3.10%)
- SAQ Question 1-3: Moderately limited, number of patients (12 months after treatment, FAS): 11
- SAQ Question 1-3: Moderately limited, percent of patients (12 months after treatment, FAS): (0.63%)
- SAQ Question 1-3: Not limited, number of patients (12 months after treatment, FAS): 1471
- SAQ Question 1-3: Not limited, percent of patients (12 months after treatment, FAS): (84.35%)
- SAQ Question 1-3: Other reasons, number of patients (12 months after treatment, FAS): 10
- SAQ Question 1-3: Other reasons, percent of patients (12 months after treatment, FAS): (0.57%)
- SAQ Question 1-3: Severely limited, number of patients (12 months after treatment, FAS): 2
- SAQ Question 1-3: Severely limited, percent of patients (12 months after treatment, FAS): (0.11%)
- SAQ Question 1-3: Slightly limited, number of patients (12 months after treatment, FAS): 196
- SAQ Question 1-3: Slightly limited, percent of patients (12 months after treatment, FAS): (11.24%)
- SAQ Question 1-4: Mildly limited, number of patients (12 months after treatment, FAS): 236
- SAQ Question 1-4: Mildly limited, percent of patients (12 months after treatment, FAS): (13.53%)
- SAQ Question 1-4: Moderately limited, number of patients (12 months after treatment, FAS): 66
- SAQ Question 1-4: Moderately limited, percent of patients (12 months after treatment, FAS): (3.78%)
- SAQ Question 1-4: Not limited, number of patients (12 months after treatment, FAS): 853
- SAQ Question 1-4: Not limited, percent of patients (12 months after treatment, FAS): (48.91%)
- SAQ Question 1-4: Other reasons, number of patients (12 months after treatment, FAS): 11
- SAQ Question 1-4: Other reasons, percent of patients (12 months after treatment, FAS): (0.63%)
- SAQ Question 1-4: Severely limited, number of patients (12 months after treatment, FAS): 13
- SAQ Question 1-4: Severely limited, percent of patients (12 months after treatment, FAS): (0.75%)
- SAQ Question 1-4: Slightly limited, number of patients (12 months after treatment, FAS): 565
- SAQ Question 1-4: Slightly limited, percent of patients (12 months after treatment, FAS): (32.40%)
- SAQ Question 1-5: Mildly limited, number of patients (12 months after treatment, FAS): 260
- SAQ Question 1-5: Mildly limited, percent of patients (12 months after treatment, FAS): (14.92%)
- SAQ Question 1-5: Moderately limited, number of patients (12 months after treatment, FAS): 79
- SAQ Question 1-5: Moderately limited, percent of patients (12 months after treatment, FAS): (4.53%)
